Assay results as given in US7071165B2, “LHRH antagonist peptides” (Indiana University Research and Technology Corporation, priority 1995, dated 2006).

How the values were obtained:
ovulation in female rats [1] = experiment: Anti-ovulatory activity (AOA) in vivo assay in rats; settings: dose 0.5 μg per rat
rat mast cells = experiment: Histamine release assay, rat mast cells
Protocol: The term “histamine-releasing activity”, as used herein, refers to the tendency of a compound to release histamine when administered to a subject. The histamine-releasing activity of a compound can be measured with an in vitro assay (described in more detail, infra). […] Histamine-releasing activity was assayed by the method described in U.S. Pat. No. 4,851,385 to Roeske. Briefly, a suspension of rat mast cells was added to increasing concentrations of an LHRH antagonist peptide and incubated for 15 minutes at 37° C. The buffer contained 25 mM PIPES, pH 7.4, NaCl (119 mM), KCl (5 mM), NaOH (40 mM) glucose (5.6 mM), CaCl2 (1 mM) and 0.1% bovine serum albumin.

ovulation in female rats [2] = experiment: Anti-ovulatory activity (AOA) in vivo assay in rats; set-up: species or system rat; settings: for AO activity (AOA), in words: rat, in vivo
How it was run: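 Female rats dosed on proestrus day with test peptide dissolved in 0.1% DMSO. Read-out is the number of rats that ovulate; antagonist activity is defined as blocking ovulation in at least 50% of treated rats at a dose of 5 μg per rat.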

[3] = cited from earlier work
plasma testosterone [4] = experiment: Suppression of plasma testosterone, continuous subcutaneous infusion via osmotic pump (FIG. 2, FIG. 3); assay type: in vivo, rat
Protocol: FIG. 2 is a graph depicting plasma testosterone levels (in ng/ml) in adult male rats subcutaneously administered the LHRH antagonist #3827 via an osmotic pump. Doses were either 300 μg/kg/day for two weeks, followed by 15 μg/kg/day for an additional two weeks or 1000 μg/kg/day for two weeks, followed by 5, 15 or 50 μg/kg/day for an additional two weeks.
FIG. 3 is a graph depicting the plasma testosterone levels (in ng/ml) in adult male rats subcutaneously administered the LHRH antagonist #3827 via an osmotic pump. Doses were either 30 μg/kg/day for two weeks, followed by 5 μg/kg/day for an additional two weeks, 100 μg/kg/day for two weeks, followed by 5 μg/kg/day for an additional two weeks. or 300 μg/kg/day for two weeks, followed by 0 or 5 μg/kg/day for an additional two weeks.
In another experiment, continuous subcutaneous infusion of the LHRH antagonist # 3827 was achieved through use of an osmotic pump. Doses of 300 or 1000 μg/kg/day (“High Dose”) were administered subcutaneously for two weeks via Alzet osmotic minipumps in each of five male Sprague-Dawley rats. The animals that received 1000 μg/kg/day were then maintained for an additional two weeks with 5, 15 or 50 μg/kg/day (“Low Dose”) before the pumps were removed completely. The results are shown graphically in FIG. 2.

plasma testosterone [5] = experiment: Suppression of plasma testosterone, eight doses every three hours (FIG. 1); assay type: in vivo, rat; settings: adult male rats
Protocol: FIG. 1 is a graph depicting plasma testosterone levels (in ng/ml) in adult male rats administered eight subcutaneous injections of the LHRH antagonist #3827, one injection every three hours, at doses of 1, 10 or 100 μg/kg.
In another experiment, the LHRH antagonist #3827 was administered in eight […] doses of 1, 10 or 100 μg/kg, each every three hours, corresponding respectively to 8, 80 or 800 μg/kg/day. The results are shown graphically in FIG. 1.

plasma testosterone [6] = experiment: Suppression of plasma testosterone, single subcutaneous injection; assay type: in vivo, rat; settings: adult male rats
Protocol: The ability of an LHRH antagonist of the invention to suppress plasma testosterone levels was examined in adult male rats. In one experiment, a single injection of LHRH antagonist was administered subcutaneously at doses of 300 or 1000 μg/kg. […] Testosterone levels returned to normal by 24 hours after the 300 μg/kg dose, but not until 72 hours after the 1000 μg/kg dose.

[7] = rat mast cells, 15 minutes at 37° C.
[8] = follow up study, FIG. 3, osmotic pump s.c.
[9] = footnote a: run with Nal arg reference 0.11
[10] = footnote b: run with Nal arg reference 0.14

Compound	AO activity (AOA): rats which ovulate / rats treated (ovulation in female rats [1])	Histamine release ED50 (rat mast cells; [7]) [µg/mL]	AO activity (AOA): rats which ovulate / rats treated (ovulation in female rats [2]; dose 1 μg per rat)	further results
Ac-D-Nal^1, 4-Cl-D-Phe^2, D-Pal^3, D-Pal(Bzl)^6, Lys(iPr)^8, D-Ala^10-LHRH.TFA [Compound 3429]	4/8@0.5 μg	6.0	0/8@1 μg	–
Ac-D-Nal^1, 4-Cl-D-Phe^2, D-Pal^3, D-Met(S^+CH3)^6, D-Ala^10-LHRH.2TFA [Compound 3967]	1/8@0.5	–	–	Histamine release ED50 (rat mast cells; footnote e: run with Nal arg reference 0.1): 0.38 µg/mL; Histamine release ED50 (rat mast cells; footnote f: run with Nal arg reference 0.02): 0.15 µg/mL; AO activity (AOA): rats which ovulate / rats treated (ovulation in female rats [2]; dose 0.25 μg per rat): 7/8@0.25
c1ccc2ccccc2c1 [naphthalene]	–	–	–	measured log P (octanol/water) [3]: 3.45
Ac-D-(or L)-Ada-Ala^1, 4-Cl-D-Phe^2, D-Pal^3, D-Cit^6-Lys(iPr)^8, D-Ala^10-LHRH.TFA [Compound 3368]	–	34	–	AO activity (AOA): rats which ovulate / rats treated (ovulation in female rats [2]; dose 5 μg per rat): 5/8@5 μg
Ac-D-Nal^1, 4-Cl-D-Phe^2, D-Pal^3, N-Me-Tyr^5, D-Asn^6, Lys(iPr)^8, D-Ala^10-LHRH.TFA [Compound 3827]	–	–	4/8@1.0	castration during Low Dose maintenance (plasma testosterone [4]; after High Dose two weeks, Low Dose pumps 5, 15 or 50 μg/kg/day, as low as 5 μg/kg/day): remained fully castrated; recovery in plasma testosterone following completion of treatment (plasma testosterone [4]; by maintenance dose): dose dependent recovery; dose achieving complete suppression of testosterone to castrate levels (as low as) (plasma testosterone [4]; [8]): ≤ 30 µg/kg/day; dose maintaining castrate levels (as low as) (plasma testosterone [4]; [8]): ≤ 5 µg/kg/day; time to castrate levels of testosterone (plasma testosterone [4]; male Sprague-Dawley rats, osmotic pump s.c., initial dose 300 or 1000 μg/kg/day): ≤ 7 days; castration response during chronic treatment (plasma testosterone [4]; osmotic pump s.c.): no apparent “castration response”; recovery of testosterone levels following pump removal (plasma testosterone [4]; rat, in vivo): complete within two weeks; plasma testosterone (plasma testosterone [5]; eight doses of 1 μg/kg, every three hours (8 μg/kg/day)): significant decrease; plasma testosterone (plasma testosterone [5]; eight doses of 10 μg/kg, every three hours (80 μg/kg/day)): Castrate levels; time until testosterone levels returned to normal (plasma testosterone [6]; single s.c. 300 μg/kg): ≤ 24 h; time until testosterone levels returned to normal (plasma testosterone [6]; single s.c. 1000 μg/kg): 72 h; plasma testosterone (plasma testosterone [6]; single s.c. injection 300 or 1000 μg/kg, by 6 hours post-administration): nearly undetectable levels; AO activity (AOA), in words (ovulation in female rats [2]): moderate AO activity
Ac-D-Nal^1, 4-Cl-D-Phe^2, D-Pal^3, His^5D-Pal(iPr)^6, Lys(iPr)^8, D-Ala^10-LHRH.2TFA [Compound 3982]	–	–	8/8@1.00	Histamine release ED50 (rat mast cells; footnote c: run with Nal arg reference 0.28): 53 µg/mL; Histamine release ED50 (rat mast cells; footnote d: run with Nal arg reference 0.11): 33 µg/mL
Ac-D-Nal^1, 4-Cl-D-Phe^2, D-Pal^3, D-Cit^6-Lys(iPr)^8-LHRH.TFA [Compound 3362]	–	22	4/8@1 μg	–
Ac-D-Nal^1, 4-Cl-D-Phe^2, D-Pal^3, D-Lys(Glc)^6-Lys(iPr)^8, D-Ala^10-LHRH.TFA [Compound 3423A]	7/10@0.5 μg	52	2/10@1 μg	AO activity (AOA): rats which ovulate / rats treated (ovulation in female rats [2]; dose 2 μg per rat): 0/10@2 μg
Ac-L-(or D)-Ada-Ala^1, 4-Cl-D-Phe^2, D-Pal^3, D-Cit^6-Lys(iPr)^8, D-Ala^10-LHRH.TFA [Compound 3369]	–	93	–	Histamine-releasing activity, in words (rat mast cells): low histamine release; AO activity (AOA): rats which ovulate / rats treated (ovulation in female rats [2]; dose 5 μg per rat): 7/8@5 μg
Ac-D-Nal^1, 4-Cl-D-Phe^2, D-Pal^3, D-Lys(Imdac)^6, Lys(iPr)^8, D-Ala^10-LHRH.TFA [Compound 3741]	6/8@0.5	–	1/8@1.0	AO activity (AOA), in words (ovulation in female rats [2]): good AO activity
Ac-D-Nal^1, 4-Cl-D-Phe^2, D-Pal^3, D-Phe(4-NO2)^6-Lys(iPr)^8, D-Ala^10-LHRH.TFA [Compound 3364]	–	14	6/8@1 μg	–
Ac-D-Nal^1, 4-Cl-D-Phe^2, D-Pal^3, D-Lys(iPrPic)^6, Lys(iPr)^8, D-Ala^10-LHRH.TFA [Compound 3438]	–	5.6	2/8@1 μg	–
Ac-D-Nal^1, 4-Cl-D-Phe^2, D-Trp^3, D-Met(S^+Me)^6, D-Ala^10-LHRH.2TFA [Compound 3879]	6/8@0.5	–	0/8@1.0	AO activity (AOA), in words (ovulation in female rats [2]): high AOA
Ac-D-Nal^1, 4-Cl-D-Phe^2, D-Pal^3, Pal^5, D-Pal(iPr)^6, Lys(iPr)^8, D-Ala^10-LHRH.TFA [Compound 3430]	–	10	3/8@1 μg	–
Oc1ccc2ccccc2c1 [β-naphthol]	–	–	–	measured log P (octanol/water) [3]: 2.84
Ac-D-Nal^1, 4-Cl-D-Phe^2, D-Pal^3, D-Lys(Ppic)^6, Lys(iPr)^8, D-Ala^10-LHRH.TFA [Compound 3760]	7/8@0.5	–	1/8@1.0	AO activity (AOA), in words (ovulation in female rats [2]): good AO activity
Ac-D-Nal^1, 4-Cl-D-Phe^2, D-Pal^3, D-Arg^6, Orn(COCH2S^+Me2)^8, D-Ala^10, LHRH.2TFA [Compound 3985]	8/8@0.5	–	0/8@1.00	Histamine release ED50 (rat mast cells; [9]): 4.4 µg/mL; Histamine release ED50 (rat mast cells; [10]): 3.86 µg/mL
Ac-D-Nal^1, 4-Cl-D-Phe^2, D-Pal^3, D-Cit^6-Lys(iPr)^8, Pip^9-D-Ala^10-LHRH.TFA [Compound 3344]	–	32	9/10@1 μg	–
Ac-D-Nal^1, 4-Cl-D-Phe^2, D-Pal^3, 4-Cl-Phe^5, D-Pal(iPr)^6, Lys(iPr)^8, D-Ala^10-LHRH.2TFA [Compound 3851]	6/8@0.5	–	0/8@1.0	Histamine release ED50 (rat mast cells; [9]): 4.1 µg/mL; Histamine release ED50 (rat mast cells; [10]): 5.4 µg/mL; AO activity (AOA), in words (ovulation in female rats [2]): unexpectedly active
Ac-D-Nal^1, 4-Cl-D-Phe^2, D-Trp^3, D-Arg^6, Met(S^+Me)^8, D-Ala^10-LHRH.2TFA [Compound 3878]	7/8@0.5	–	2.8@1.0	–
Ac-D-Nal^1, 4-Cl-D-Phe^2, D-Pal^3, D-Lys(OTac)^6, Lys(iPr)^8, D-Ala^10-LHRH.TFA [Compound 3508]	6/8@0.5 μg	–	0/8@1 μg	–
Ac-D-Nal^1, 4-Cl-D-Phe^2, D-Pal^3, D-Arg^6, Met(S^+Me)^8, D-Ala^10-LHRH.2TFA [Compound 3983]	8/8@0.5	–	0/8@1.00	Histamine release ED50 (rat mast cells; footnote g: run with Nal arg reference 0.1): 5.35 µg/mL; Histamine release ED50 (rat mast cells; footnote h: run with Nal arg reference 0.02): 1.32 µg/mL; AO activity (AOA), in words (ovulation in female rats [2]): high AOA
Ac-D-Nal^1, 4-Cl-D-Phe^2, D-Pal^3, D-Cit^6-Lys(iPr)^8, Pip^9-LHRH.TFA [Compound 3363]	–	25	6/8@1 μg	–
